# Measurements from article PMC11613437, “Prioritization of Eleven-Nineteen-Leukemia Inhibitors as Orally Available Drug Candidates for Acute Myeloid Leukemia” (Journal of Medicinal Chemistry, 2024).
# What was measured:
# [1] = Cell toxicity assay (CCK-8), Jurkat; format: cell-based; details: human, Jurkat cells; for IC50 at 8 days: 8 day treatment, n = 3, read-out: CC50 Jurkat (Cellular IC50, 8-days incubation)
# Method: (§1) Approximately 1 × 10^4 JURKAT, MOLM-13, MV4-11 and HEK293T cells in RPMI 1640 (no phenol red) (100 μL) were added to a 96-well plate and treated with DMSO or a compound at indicated concentrations for 72 h or 8 days. Cell viability was measured using the CCK-8 kit (Abcam, ab228554) according to the manufacturer’s instructions.
# [2] = system: MOLM-13 cells; assay: Cell toxicity assay (CCK-8), MOLM-13; format: cell-based
# Method: as §1
# [3] = Cell toxicity assay (CCK-8), MOLM-13; format: cell-based; details: human, MOLM-13 cells, 8 day treatment, n = 3; read-out: CC50 MOLM-13 (Cellular IC50, 8-days incubation)
# Method: as §1
# [4] = system: MOLM-13 cells; assay: Anti-proliferation assay, MOLM-13; format: cell-based; details: Homo sapiens, MOLM-13, 336 h, approximately 2 weeks, read-out: inhibition of MOLM-13 cell proliferation
# Method: Cell proliferation assays were carried out in a 96-well tissue culture plate at 2 × 10^4 cells/well for all cell lines except in 200 μL with a compound added as 1:1000 dilution of DMSO stocks in triplicate. Culture density was determined every 3–4 days using the countess automated cell counter, after which 2 × 10^4 live cells were reseeded in fresh media and compound. The cumulative cell count was achieved by back calculation.
# [5] = system: MV4-11 cells; assay: Cell toxicity assay (CCK-8), MV4-11; format: cell-based; details: Homo sapiens, MV4-11; 72 h treatment (superscript a)
# Method: as §1
# [6] = Body weight of xenografted NSG mice under treatment; format: in vivo
# Text: Animal studies were approved by the Texas A&M’s Institutional Animal Care and Use Committees. The 5 week-old female NSG mice (NOD.Cg-PrkdcscidIl2rgtm1Wjl/SzJ, Jackson Laboratory #005557) were ordered and kept under pathogen-free conditions for 1 week with free access to food and water after arrival for acclimation. Tumor models in these mice were then built by engrafting 1 × 10^6 MOLM-13-Luc cells (BPS Bioscience, 78372) through tail vein injection. Tumors were allowed to grow for 6 days, and then applied for treatment by oral gavage daily (day 0 was the beginning of treatment). Dosage of 200 or 400 mg/kg (vehicle of 5% DMSO, 45% PEG400, 2.5% Tween 80, and 47.5% water) was applied. Tumor growth was evaluated by bioluminescent imaging (BLI) using an IVIS In Vivo Imaging System by intraperitoneal injection of 150 mg/kg D-Luciferin potassium salt (MedChemExpress, HY-12591B). Their body weights were recorded every 2–3 days. Surviving mice were counted every day and the mortality was calculated. No animal was excluded from any of the analyses. The investigators were not blinded to allocation during experiments and outcome assessment.
# [7] = biological target: T1, ENL YEATS domain (Homo sapiens, UniProt Q03111); assay: Biolayer interferometry (BLI); format: binding; details: biotinylated ENL YEATS on SSA biosensors, 1:1 model
# T1 construct: Biotinylated-ENL YEATS was immobilized onto SSA biosensors; biotin (biotinylated)
# T1 sequence (Q03111 1-138 limits assumed): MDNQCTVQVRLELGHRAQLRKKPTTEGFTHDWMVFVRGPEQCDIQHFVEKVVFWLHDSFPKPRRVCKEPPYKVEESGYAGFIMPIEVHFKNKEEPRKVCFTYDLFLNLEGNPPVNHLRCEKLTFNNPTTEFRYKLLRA
# Method: Superstreptavidin biosensors were first incubated in an assay buffer (20 mM Tris, pH 7.8, 300 mM NaCl, 0.05% Tween 20, 0.1% DMSO) for 15 min. Sensors were coated with 40–60 μg/mL of biotinylated ENL for 15 min at room temperature. Inhibitors were serially diluted across a 96-well plate in a volume of 200 μL. Association of samples to either ENL- or uncoated reference sensors was measured over 300 s and dissociation over 300 s with baseline measurements (buffer only) for 300 s. All assays were run with continuous 1000 rpm shaking. Data were analyzed using the OctetRED data analysis software with reference subtraction in which reference uncoated sensors and reference samples were subtracted. Then, global kinetic fit was performed for all sonogram curves with a 1:1 model to get KD values.
SMILES,CC50 at 72 h ([1]; 72 h treatment (superscript a)),IC50 at 8 days [1],"IC50 ([2]; 8 day treatment, n = 3, read-out: CC50 MOLM-13 (Cellular IC50, 8-days incubation))","CC50 ([2]; Homo sapiens, MOLM-13, 72 h treatment (superscript a))",IC50 at 8 days [3],inhibition at 1 µM [4],inhibition at 10 µM ([4]; 10 μM),CC50 [5],tolerability / body weight loss ([6]; 200 mg/kg PO QD),tolerability / body weight loss ([6]; 400 mg/kg PO QD),Kd [7]
CC(C)C1CCN1Cc1ccc(CNC(=O)c2ccc3nncn3c2)cc1 (stereo not drawn) [inhibitor 13],> 64 µM,22 ± 1.79 µM,6.01 ± 0.83 µM,8.2 µM,6.06 µM,30%,85%,9.15 µM,no significant body weight loss observed,without significant body weight loss until day 15,–
"CC(C)[C@H]1CCN1Cc1cc2cnc(NC(=O)c3ccc4nncn4c3)cc2[nH]1 [SR-C-107 (R), (R)-N-(2-((2-Isopropylazetidin-1-yl)methyl)-1H-pyrrolo[3,2-c]pyridin-6-yl)-[1,2,4]triazolo[4,3-a]pyridine-6-carboxamide]",–,> 64 µM,–,–,1.25 ± 0.18 µM,~90%,–,–,no significant body weight loss observed,–,144 nM
